Where “and” joins values, the source holds several entries; their conditions need not be identical. Identical values can stand only once. Inconclusive results and toxic doses are left out.
System: BDF1 mice, P388 leukemia ip, median survival T/C
Experiment: NCI In Vivo Anticancer Drug Screen. Data for tumor model P388 Leukemia (intraperitoneal) in B6D2F1 (BDF1) mice
Conditions: endpoint: median survival time, higher = longer survival
Summary of the method: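 T/C = treated-group survival ÷ vehicle-control survival; tumour transplanted into mice before dosing.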

[1] = dose: 200.0 mg/kg/injection, schedule: Q01DX009 (ip), vehicle: Klucel (hydroxypropylcellulose) (HPC)
[2] = dose: 50.0 mg/kg/injection, schedule: Q01DX009 (ip), vehicle: saline with Tween-80
[3] = dose: 100.0 mg/kg/injection, schedule: Q01DX009 (ip), vehicle: saline with Tween-80
[4] = dose: 200.0 mg/kg/injection, schedule: Q01DX009 (ip), vehicle: saline with Tween-80

CC(CCC(=O)NC12CC3CC(CC(C3)C1)C2)C1CCC2C3C(OC=O)CC4CC(OC=O)CCC4(C)C3CC(OC=O)C12C (configuration not stated)
T/C (dose: 12.5 mg/kg/injection, schedule: Q04DX002 (ip), vehicle: saline with Tween-80): 98 % of control | T/C (dose: 25.0 mg/kg/injection, schedule: Q04DX002 (ip), vehicle: saline with Tween-80): 100 % of control | T/C (dose: 50.0 mg/kg/injection, schedule: Q04DX002 (ip), vehicle: saline with Tween-80): 100 % of control | T/C (dose: 200.0 mg/kg/injection, schedule: Q04DX002 (ip), vehicle: saline with Tween-80): 88 % of control | T/C (dose: 400.0 mg/kg/injection, schedule: Q04DX002 (ip), vehicle: saline with Tween-80): 98 % of control

NC(=O)NOCC1NC(=O)C(CONC(N)=O)NC1=O (configuration not stated)
T/C (dose: 100.0 mg/kg/injection, schedule: Q01DX009 (ip), vehicle: saline): 116 % of control | T/C (dose: 400.0 mg/kg/injection, schedule: Q01DX009 (ip), vehicle: saline): 105 % of control

O=c1[nH]cnc2c(C3OC(CO)C(O)C3O)[nH]nc12 (configuration not stated)
T/C (dose: 10.0 mg/kg/injection, schedule: Q01DX009 (ip), vehicle: saline): 91 % of control | T/C (dose: 20.0 mg/kg/injection, schedule: Q01DX009 (ip), vehicle: saline): 100 % of control | T/C (dose: 40.0 mg/kg/injection, schedule: Q01DX009 (ip), vehicle: saline): 91 % of control

NCCc1ccc(O)c(O)c1
T/C (dose: 37.5 mg/kg/injection, schedule: Q01DX009 (ip), vehicle: saline): 101 % of control and 120 % of control | T/C (dose: 75.0 mg/kg/injection, schedule: Q01DX009 (ip), vehicle: saline): 114 % of control | T/C (dose: 150.0 mg/kg/injection, schedule: Q01DX009 (ip), vehicle: saline): 111 % of control | T/C (dose: 300.0 mg/kg/injection, schedule: Q01DX009 (ip), vehicle: saline): 158 % of control

C[n+]1cc2c3ccccc3c(N)cc2c2ccccc21
T/C (dose: 3.12 mg/kg/injection, schedule: Q01DX009 (ip), vehicle: water): 157 % of control | T/C (dose: 6.25 mg/kg/injection, schedule: Q01DX009 (ip), vehicle: water): 185 % of control | T/C (dose: 6.25 mg/kg/injection, schedule: Q04DX003 (ip), vehicle: water): 102 % of control | T/C (dose: 12.5 mg/kg/injection, schedule: Q04DX003 (ip), vehicle: water): 116 % of control | T/C (dose: 25.0 mg/kg/injection, schedule: Q01DX009 (ip), vehicle: water): 91 % of control | T/C (dose: 25.0 mg/kg/injection, schedule: Q04DX003 (ip), vehicle: water): 98 % of control | T/C (dose: 100.0 mg/kg/injection, schedule: Q04DX003 (ip), vehicle: water): 154 % of control | T/C (dose: 150.0 mg/kg/injection, schedule: Q04DX003 (ip), vehicle: water): 203 % of control

O=C1N(Cl)C(=O)C(c2ccc(Cl)cc2)(c2ccc(Cl)cc2)N1Cl
T/C (dose: 22.0 mg/kg/injection, schedule: Q04DX003 (ip), vehicle: saline with Tween-80): 115 % of control | T/C (dose: 22.0 mg/kg/injection, schedule: Q04DX003 (ip), vehicle: saline): 91 % of control | T/C (dose: 25.0 mg/kg/injection, schedule: Q02DX005 (ip), vehicle: Klucel (hydroxypropylcellulose) (HPC)): 110 % of control | T/C (dose: 25.0 mg/kg/injection, schedule: Q04DX003 (ip), vehicle: Klucel (hydroxypropylcellulose) (HPC)): 105 % of control | T/C (dose: 25.0 mg/kg/injection, schedule: Q04DX003 (ip), vehicle: saline with Tween-80): 104 % of control | T/C (dose: 30.0 mg/kg/injection, schedule: Q04DX003 (ip), vehicle: Klucel (hydroxypropylcellulose) (HPC)): 100 % of control | T/C (dose: 33.0 mg/kg/injection, schedule: Q04DX003 (ip), vehicle: saline with Tween-80): 123 % of control | T/C (dose: 33.0 mg/kg/injection, schedule: Q04DX003 (ip), vehicle: saline): 116 % of control | T/C (dose: 38.5 mg/kg/injection, schedule: Q04DX003 (ip), vehicle: saline with Tween-80): 120 % of control | T/C (dose: 50.0 mg/kg/injection, schedule: Q02DX005 (ip), vehicle: Klucel (hydroxypropylcellulose) (HPC)): 124 % of control | T/C (dose: 50.0 mg/kg/injection, schedule: Q04DX003 (ip), vehicle: Klucel (hydroxypropylcellulose) (HPC)): 96 % of control | T/C (dose: 50.0 mg/kg/injection, schedule: Q04DX003 (ip), vehicle: saline with Tween-80): 153 % of control | T/C (dose: 50.0 mg/kg/injection, schedule: Q04DX003 (ip), vehicle: saline): 120 % of control | T/C (dose: 60.0 mg/kg/injection, schedule: Q04DX003 (ip), vehicle: Klucel (hydroxypropylcellulose) (HPC)): 111 % of control | T/C (dose: 75.0 mg/kg/injection, schedule: Q04DX003 (ip), vehicle: saline with Tween-80): 150 % of control | T/C (dose: 75.0 mg/kg/injection, schedule: Q04DX003 (ip), vehicle: saline): 120 % of control | T/C (dose: 100.0 mg/kg/injection, schedule: Q02DX005 (ip), vehicle: Klucel (hydroxypropylcellulose) (HPC)): 151 % of control | T/C (dose: 100.0 mg/kg/injection, schedule: Q04DX003 (ip), vehicle: Klucel (hydroxypropylcellulose) (HPC)): 96 % of control | T/C (dose: 100.0 mg/kg/injection, schedule: Q04DX003 (ip), vehicle: saline sonified): 160 % of control | T/C (dose: 100.0 mg/kg/injection, schedule: Q04DX003 (ip), vehicle: saline with Tween-80): 150 % of control and 154 % of control | T/C (dose: 132.0 mg/kg/injection, schedule: Q02DX005 (ip), vehicle: Klucel (hydroxypropylcellulose) (HPC)): 150 % of control | T/C (dose: 132.0 mg/kg/injection, schedule: Q04DX003 (ip), vehicle: saline with Tween-80): 112 % of control and 117 % of control | T/C [1]: 156 % of control | T/C (dose: 200.0 mg/kg/injection, schedule: Q02DX005 (ip), vehicle: Klucel (hydroxypropylcellulose) (HPC)): 155 % of control and 171 % of control | T/C (dose: 200.0 mg/kg/injection, schedule: Q04DX003 (ip), vehicle: Klucel (hydroxypropylcellulose) (HPC)): 98 % of control | T/C (dose: 200.0 mg/kg/injection, schedule: Q04DX003 (ip), vehicle: saline sonified): 180 % of control | T/C (dose: 300.0 mg/kg/injection, schedule: Q01DX009 (ip), vehicle: Klucel (hydroxypropylcellulose) (HPC)): 95 % of control | T/C (dose: 300.0 mg/kg/injection, schedule: Q02DX005 (ip), vehicle: Klucel (hydroxypropylcellulose) (HPC)): 152 % of control | T/C (dose: 300.0 mg/kg/injection, schedule: Q04DX003 (ip), vehicle: Klucel (hydroxypropylcellulose) (HPC)): 114 % of control | T/C (dose: 380.0 mg/kg/injection, schedule: Q04DX003 (ip), vehicle: Klucel (hydroxypropylcellulose) (HPC)): 100 % of control | T/C (dose: 400.0 mg/kg/injection, schedule: Q04DX003 (ip), vehicle: saline sonified): 190 % of control

CCN1CCCC(Nc2nc(Nc3cc(Cl)cc(Cl)c3)nc3cc(Cl)ccc23)C1 (configuration not stated)
T/C (dose: 37.5 mg/kg/injection, schedule: Q01DX001 (ip), vehicle: saline sonified): 120 % of control | T/C (dose: 75.0 mg/kg/injection, schedule: Q01DX001 (ip), vehicle: saline sonified): 115 % of control | T/C (dose: 150.0 mg/kg/injection, schedule: Q01DX001 (ip), vehicle: saline sonified): 120 % of control

C[C@]12CC[C@H]3[C@@H](CC[C@]4(O)C[C@@H](O)CC[C@]34C=O)[C@@]1(O)CC[C@@H]2C1=CC(=O)OC1
T/C (dose: 12.5 mg/kg/injection, schedule: Q01DX009 (ip), vehicle: Klucel (hydroxypropylcellulose) (HPC)): 105 % of control | T/C (dose: 25.0 mg/kg/injection, schedule: Q01DX009 (ip), vehicle: Klucel (hydroxypropylcellulose) (HPC)): 95 % of control | T/C (dose: 25.0 mg/kg/injection, schedule: Q01DX010 (ip), vehicle: carboxymethylcellulose (CMC)): 100 % of control | T/C (dose: 50.0 mg/kg/injection, schedule: Q01DX009 (ip), vehicle: Klucel (hydroxypropylcellulose) (HPC)): 109 % of control and 115 % of control | T/C (dose: 100.0 mg/kg/injection, schedule: Q01DX009 (ip), vehicle: Klucel (hydroxypropylcellulose) (HPC)): 100 % of control | T/C (dose: 100.0 mg/kg/injection, schedule: Q01DX010 (ip), vehicle: carboxymethylcellulose (CMC)): 105 % of control | T/C [1]: 100 % of control | T/C (dose: 200.0 mg/kg/injection, schedule: Q01DX010 (ip), vehicle: carboxymethylcellulose (CMC)): 105 % of control

c1ccc2c(c1)nnn2OC1CCCC1
T/C [2]: 106 % of control | T/C [3]: 116 % of control | T/C [4]: 119 % of control

COc1cccc(Sc2ccc([N+](=O)[O-])c3nonc23)c1
T/C (dose: 12.5 mg/kg/injection, schedule: Q01DX009 (ip), vehicle: saline with Tween-80): 102 % of control | T/C (dose: 25.0 mg/kg/injection, schedule: Q01DX009 (ip), vehicle: saline with Tween-80): 107 % of control

CCOC(=O)C(CCCO)C(=O)OCC
T/C (dose: 50.0 mg/kg/injection, schedule: Q01DX001 (ip), vehicle: saline with Tween-80): 115 % of control | T/C (dose: 100.0 mg/kg/injection, schedule: Q01DX001 (ip), vehicle: saline with Tween-80): 100 % of control | T/C (dose: 200.0 mg/kg/injection, schedule: Q01DX001 (ip), vehicle: saline with Tween-80): 110 % of control

CC(=O)N1c2ccccc2C23CCN4CC5=CCOC(O)C(C5CC42)C13 (configuration not stated)
T/C (dose: 30.0 mg/kg/injection, schedule: Q01DX009 (ip), vehicle: saline): 152 % of control

COC(=O)CC(CC(=O)c1ccccc1)c1ccccc1 (configuration not stated)
T/C [2]: 95 % of control | T/C [3]: 97 % of control | T/C [4]: 87 % of control | T/C (dose: 400.0 mg/kg/injection, schedule: Q01DX009 (ip), vehicle: saline with Tween-80): 88 % of control
